Measurements reported in BindingDB's records for PubMed 35247754 (China Pharmaceutical University, 2022).

Columns and labels:
[1] = biological target: T1, Sentrin-specific protease 6 (Homo sapiens, UniProt Q9GZR1); assay: Inhibition of human SENP6 using AMC-tagged SUMO1 as substrate incubated for 10 mins by fluorescence based analysis
T1 sequence (Q9GZR1 whole entry): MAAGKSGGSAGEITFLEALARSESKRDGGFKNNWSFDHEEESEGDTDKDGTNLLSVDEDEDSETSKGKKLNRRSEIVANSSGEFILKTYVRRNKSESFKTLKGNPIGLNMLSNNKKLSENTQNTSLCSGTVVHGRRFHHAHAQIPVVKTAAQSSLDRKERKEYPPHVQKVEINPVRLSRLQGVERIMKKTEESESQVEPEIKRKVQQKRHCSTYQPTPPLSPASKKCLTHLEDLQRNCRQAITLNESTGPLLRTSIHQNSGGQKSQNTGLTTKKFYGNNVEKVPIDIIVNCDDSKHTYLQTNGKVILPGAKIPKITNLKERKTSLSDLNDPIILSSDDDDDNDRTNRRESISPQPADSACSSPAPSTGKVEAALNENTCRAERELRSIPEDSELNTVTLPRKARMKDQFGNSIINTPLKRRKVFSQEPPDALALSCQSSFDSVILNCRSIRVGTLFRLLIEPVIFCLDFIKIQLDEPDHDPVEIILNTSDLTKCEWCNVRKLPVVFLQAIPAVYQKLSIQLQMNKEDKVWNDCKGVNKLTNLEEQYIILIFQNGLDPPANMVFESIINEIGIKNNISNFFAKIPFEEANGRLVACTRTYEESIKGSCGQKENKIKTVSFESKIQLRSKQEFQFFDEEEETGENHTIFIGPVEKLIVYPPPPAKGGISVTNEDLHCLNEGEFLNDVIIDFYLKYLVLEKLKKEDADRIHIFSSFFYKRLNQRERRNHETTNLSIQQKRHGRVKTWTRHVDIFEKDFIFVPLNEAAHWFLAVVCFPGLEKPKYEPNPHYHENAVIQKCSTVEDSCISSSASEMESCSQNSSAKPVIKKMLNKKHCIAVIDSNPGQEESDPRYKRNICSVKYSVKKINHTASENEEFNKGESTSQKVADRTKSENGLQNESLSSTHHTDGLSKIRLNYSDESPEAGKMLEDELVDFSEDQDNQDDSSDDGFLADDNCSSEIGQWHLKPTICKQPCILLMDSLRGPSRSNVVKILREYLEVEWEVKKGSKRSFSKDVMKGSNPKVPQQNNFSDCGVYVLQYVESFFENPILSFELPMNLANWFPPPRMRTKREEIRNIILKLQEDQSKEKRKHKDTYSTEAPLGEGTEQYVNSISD

[2] = biological target: T2, Sentrin-specific protease 2 (Homo sapiens, UniProt Q9HC62); assay: Inhibition of human SENP2 using AMC-tagged SUMO1 as substrate incubated for 10 mins by fluorescence based analysis
T2 sequence (Q9HC62 whole entry): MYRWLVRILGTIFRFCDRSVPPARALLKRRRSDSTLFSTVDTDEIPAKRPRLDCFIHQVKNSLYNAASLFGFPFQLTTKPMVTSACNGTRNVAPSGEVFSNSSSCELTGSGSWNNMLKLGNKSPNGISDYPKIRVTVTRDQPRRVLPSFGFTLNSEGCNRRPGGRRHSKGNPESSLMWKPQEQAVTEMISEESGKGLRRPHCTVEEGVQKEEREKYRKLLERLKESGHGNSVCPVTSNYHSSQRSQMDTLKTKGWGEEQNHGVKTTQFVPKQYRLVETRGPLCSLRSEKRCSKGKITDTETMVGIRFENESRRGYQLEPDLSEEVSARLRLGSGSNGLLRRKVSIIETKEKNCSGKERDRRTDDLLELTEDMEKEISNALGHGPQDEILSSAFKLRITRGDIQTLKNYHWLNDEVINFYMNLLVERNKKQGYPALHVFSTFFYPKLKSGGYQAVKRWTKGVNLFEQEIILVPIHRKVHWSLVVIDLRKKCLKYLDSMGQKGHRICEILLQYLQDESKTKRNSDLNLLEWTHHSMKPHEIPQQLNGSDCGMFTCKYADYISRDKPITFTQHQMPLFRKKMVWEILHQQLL

[3] = biological target: T3, Sentrin-specific protease 1 (Homo sapiens, UniProt Q9P0U3); assay: Inhibition of human SENP1 using AMC-tagged SUMO1 as substrate incubated for 10 mins by fluorescence based analysis
T3 sequence (Q9P0U3 whole entry): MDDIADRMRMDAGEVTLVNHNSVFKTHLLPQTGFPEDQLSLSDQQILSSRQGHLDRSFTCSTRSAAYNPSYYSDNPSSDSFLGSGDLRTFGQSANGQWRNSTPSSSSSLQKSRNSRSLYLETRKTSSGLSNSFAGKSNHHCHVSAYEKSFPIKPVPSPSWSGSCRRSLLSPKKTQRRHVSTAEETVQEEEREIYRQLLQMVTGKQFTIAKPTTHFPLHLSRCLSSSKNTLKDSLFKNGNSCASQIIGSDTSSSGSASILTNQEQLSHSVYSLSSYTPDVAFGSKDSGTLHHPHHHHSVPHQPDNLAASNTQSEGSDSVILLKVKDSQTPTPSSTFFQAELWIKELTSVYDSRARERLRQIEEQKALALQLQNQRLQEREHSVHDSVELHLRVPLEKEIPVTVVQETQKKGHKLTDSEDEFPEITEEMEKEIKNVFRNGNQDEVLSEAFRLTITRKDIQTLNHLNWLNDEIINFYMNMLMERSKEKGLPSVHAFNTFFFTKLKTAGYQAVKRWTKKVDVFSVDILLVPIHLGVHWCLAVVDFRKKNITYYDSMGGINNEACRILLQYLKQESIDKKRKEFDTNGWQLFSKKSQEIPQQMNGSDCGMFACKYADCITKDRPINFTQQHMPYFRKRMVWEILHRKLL

COC1=C(N)C(=O)c2nc(-c3nc(C(=O)O)c(C)c(-c4ccc(OC)c(OC)c4O)c3N)ccc2C1=O [CHEBI:9287]
IC50 [1]: 5.2 µM | IC50 [2]: 6.9 µM | IC50 [3]: 0.52 µM
